In patent publication US12319651B2, “Crystalline forms and methods of producing crystalline forms of a compound” (priority 2019, dated 2025):

Legend:
[1] = format: physicochemical
Procedure: The starting crystal Form was heated to 120° C. and the resulting material was analyzed by XRPD.
The XRPD results of crystalline Form E (FIG. 2) show good crystallinity. […] (FIG. 6). […] The XRPD results of crystalline Forms E+C (FIG. 3) show good crystallinity. Differential scanning calorimetry results for crystalline Forms E+C were very similar to that of Form E (FIG. 7). […] Form conversion was complete by 125° C. in the solid state.

[2] = Dynamic vapor sorption (moisture sorption/desorption); format: physicochemical; details: for Hygroscopicity: automated vapor sorption/desorption analysis, 5% to 95% RH
Procedure: Moisture sorption/desorption data were collected on a VTI SGA-100 Vapor Sorption Analyzer. Sorption and desorption data were collected over a range of 5% to 95% relative humidity (RH) at 10% RH intervals under an nitrogen purge. Samples were not dried prior to analysis. Equilibrium criteria used for analysis were less than 0.0100% weight change in 5 minutes, with a maximum equilibration time of 3 hours if the weight criterion was not met. Data were not corrected for the initial moisture content of the samples. NaCl and PVP were used as calibration standards.

[3] = Interconversion slurries of crystal forms; format: physicochemical; details: for Relationship of forms C and E: from DSC data and interconversion results, transition temperature less than ambient
Text: Crystal forms of the compound of Formula (I) were weighed out in approximately equal amounts and combined as desired. Aliquots of saturated solutions of compound in various solvents were filtered (0.2-μm nylon filter) into vials containing solid mixtures such that undissolved solids were present. The mixture was then agitated by either loading it onto an orbit shaker or adding a cross-shaped stir bar and allowing the mixture to stir in a sealed vial at stated conditions. The solids were isolated by vacuum filtration and analyzed.
Interconversion slurries were conducted as individual pairings between the E+C mixture and Form E material and between forms C and E. The experiments were carried out in cyclohexane and acetone:water 20:80, at room temperature for 7 days. Additional slurries were set up in toluene at room temperature for 1 day and at approximately 5° C. for 2 days.
A second set of interconversion slurries was conducted in which all unique patterns were slurried together at 50° C. in cyclohexane and ethanol:water 50:50. […]

[4] = Measurement of the approximate solubility (visual dissolution in solvent aliquots); format: physicochemical; details: thermodynamic from solid
Procedure: Aliquots of various solvents were added to measured amounts of compound with agitation (typically sonication) at ambient or elevated temperatures until complete dissolution was achieved, as judged by visual observation.
The approximate solubility at ambient temperature must be known in order to carry out systematic crystallization experiments.

SMILES: N#Cc1ccc(N2CCC[C@@H]2C(O)C(F)(F)F)cc1C(F)(F)F (stereo partly drawn) [Form E]
- Temperature at which form conversion was complete ([1]; VT-XRPD, solid state): ≤ 125 °C
- Temperature of conversion to Form C upon heating ([1]; VT-XRPD, mixture of forms E+C observed at this temperature): 115 °C
- Stability over humidity [2]: stable over a wide range of humidity
- Hygroscopicity [2]: slightly hygroscopic
- Relationship of forms C and E [3]: enantiotropic
- Most stable form in slurry ([3]; toluene at approximately 5° C.): most stable form

SMILES: N#Cc1ccc(N2CCC[C@@H]2C(O)C(F)(F)F)cc1C(F)(F)F (stereo partly drawn) [Form B]
- Temperature of likely form transformation upon heating [1]: approximately 150 °C
- Hydrate formation [2]: does not show any evidence of hydrate formation
- Stability over humidity [2]: stable over a wide range of humidity

SMILES: N#Cc1ccc(N2CCC[C@@H]2C(O)C(F)(F)F)cc1C(F)(F)F (stereo partly drawn) [Compound of Formula (I)]
- solubility ([4]; aqueous with cosolvent or surfactant or cyclodextrin, ambient, 1,4-dioxane/water 20:80 v/v): < 2 mg/mL
- solubility ([4]; aqueous with cosolvent or surfactant or cyclodextrin, ambient, 1-propanol/water 20:80 v/v): < 2 mg/mL
- solubility ([4]; aqueous with cosolvent or surfactant or cyclodextrin, ambient, 2,2,2-trifluoroethanol/water 20:80 v/v): < 2 mg/mL
- solubility ([4]; aqueous with cosolvent or surfactant or cyclodextrin, ambient, acetone/water 20:80 v/v): < 2 mg/mL
- solubility ([4]; aqueous with cosolvent or surfactant or cyclodextrin, ambient, acetone/water 50:50 v/v): 9 mg/mL
- solubility ([4]; aqueous with cosolvent or surfactant or cyclodextrin, ambient, acetonitrile/water 20:80 v/v): < 2 mg/mL
- solubility ([4]; aqueous with cosolvent or surfactant or cyclodextrin, ambient, ethanol/water 20:80 v/v): < 2 mg/mL
- solubility ([4]; aqueous with cosolvent or surfactant or cyclodextrin, ambient, hexafluoroisopropanol/water 20:80 v/v): < 2 mg/mL
- solubility ([4]; aqueous with cosolvent or surfactant or cyclodextrin, ambient, isopropanol/water 20:80 v/v): < 2 mg/mL
- solubility ([4]; aqueous with cosolvent or surfactant or cyclodextrin, ambient, methanol/water 20:80 v/v): < 2 mg/mL
- solubility ([4]; aqueous with cosolvent or surfactant or cyclodextrin, ambient, tetrahydrofuran/water 20:80 v/v): < 2 mg/mL
- solubility ([4]; organic solvent or mixture, ambient, 1,4-dioxane): > 111 mg/mL
- solubility ([4]; organic solvent or mixture, ambient, 1-butanol): 37 mg/mL
- solubility ([4]; organic solvent or mixture, ambient, 1-propanol): 55 mg/mL
- solubility ([4]; organic solvent or mixture, ambient, 2,2,2-trifluoroethanol): 51 mg/mL
- solubility ([4]; organic solvent or mixture, ambient, 2-butanone): > 107 mg/mL
- solubility ([4]; organic solvent or mixture, ambient, acetone): > 112 mg/mL
- solubility ([4]; organic solvent or mixture, ambient, acetonitrile): > 110 mg/mL
- solubility ([4]; organic solvent or mixture, ambient, chloroform): 37 mg/mL
- solubility ([4]; organic solvent or mixture, ambient, cyclohexane): < 2 mg/mL
- solubility ([4]; organic solvent or mixture, ambient, dichloromethane): 37 mg/mL
- solubility ([4]; organic solvent or mixture, ambient, diethyl ether): 58 mg/mL
- solubility ([4]; organic solvent or mixture, ambient, ethanol): > 104 mg/mL
- solubility ([4]; organic solvent or mixture, ambient, ethyl acetate): > 108 mg/mL
- solubility ([4]; organic solvent or mixture, ambient, hexafluoroisopropanol): > 106 mg/mL
- solubility ([4]; organic solvent or mixture, ambient, hexanes): < 2 mg/mL
- solubility ([4]; organic solvent or mixture, ambient, isopropanol): > 102 mg/mL
- solubility ([4]; organic solvent or mixture, ambient, isopropyl ether): 55 mg/mL
- solubility ([4]; organic solvent or mixture, ambient, methanol): > 116 mg/mL
- solubility ([4]; organic solvent or mixture, ambient, methyl isobutyl ketone): > 100 mg/mL
- solubility ([4]; organic solvent or mixture, ambient, tert-butyl methyl ether): > 111 mg/mL
- solubility ([4]; organic solvent or mixture, ambient, tetrahydrofuran): > 102 mg/mL
- solubility ([4]; organic solvent or mixture, ambient, toluene): 15 mg/mL
- solubility ([4]; ambient, water): < 2 mg/mL

SMILES: N#Cc1ccc(N2CCC[C@@H]2C(O)C(F)(F)F)cc1C(F)(F)F (stereo partly drawn) [Form C]
- Form stability upon heating and cooling ([1]; heating to 150° C. and cooling down to ambient temperature): remained stable
- Relative thermodynamic stability from heating study ([1]; starting crystal form heated to 120° C., XRPD): thermodynamically more stable crystal form
- Hydrate formation [2]: does not show any evidence of hydrate formation
- Stability over humidity [2]: stable over a wide range of humidity
- Water uptake ([2]; DVS, FIG. 9): negligible water uptake
- Hygroscopicity [2]: non-hygroscopic
- Most stable form in slurry of all forms ([3]; 50° C., 7 days, cyclohexane and ethanol:water 50:50): most stable form
- Thermodynamic stability among crystal forms ([3]; cyclohexane, acetone:water 20:80, toluene at ambient temperature, ethanol:water 50:50 at approximately 50° C.): most thermodynamically stable form
- Relationship of forms C and E [3]: enantiotropic

SMILES: N#Cc1ccc(N2CCC[C@@H]2C(O)C(F)(F)F)cc1C(F)(F)F (stereo partly drawn) [Form E + C]
- XRPD Result after heating ([1]; heated to 120° C.): Form C
- Hygroscopicity ([2]; listed as E+C mixture): slightly hygroscopic
